Data reported in patent US6495591B1, “Fungal efflux pump inhibitors” (Essential Therapeutics, Inc., priority 1997, dated 2002).
≈ marks a conversion by molar mass, not a printed value. Read-outs that look alike come from different tables or passages of the source.

Tests used:
[1] = system: C. albicans YEM-10 (low level CDR1 expressor); test: microbe, parasite or virus in culture; format: cell-based
[2] = system: C. glabrata YEM-17 (CgCDR overexpressor); test: microbe, parasite or virus in culture; format: cell-based
[3] = system: P388 cell line (mouse leukemia), adriamycin sensitive; test: Adriamycin cytotoxicity (MTT), P-glycoprotein assay
Procedure: (§1) The inhibitory effect of milbemycin β1 against the mammalian P-glycoprotein multi-drug resistant pump was determined following the procedure described by Tsuruo et al (Cancer Res., 1981. 41:1967-1972) with slight modification. The cytotoxicity of antitumor agent, adriamycin, against adriamycin sensitive P388 cell line (mouse leukemia) and its adriamycin resistant subline line (P388/ADM) was measured in the presence of various concentrations of milbemycin β1. […] The assay is performed in serum-free media containing 20 μM of 2-mercaptoethanol. Chemosensitivity to adriamycin was determined […] based on the reduction of MTT (3-[4,5-dimethylthiazol-2-yl]-2,5-diphenyltetrazolium bromide) into blue formazan.

[4] = system: P388/ADM, adriamycin resistant subline; test: as above
Procedure: as §1

[5] = system: C. albicans YEM-15 (CDR1 & CDR2 overexpressor); format: cell-based
[6] = target: pCDRI (ABC) efflux pump in S. cerevisiae YEM-1 (Candida albicans, UniProt P43071); test: cell-based; format: cell-based, C. albicans
[7] = target: pCDR2 (ABC) efflux pump in S. cerevisiae YEM-37 (Candida albicans, UniProt P78595); test: cell-based; format: cell-based, C. albicans
[8] = target: pCgCDR (ABC) efflux pump in S. cerevisiae YEM-39 (Candida glabrata, UniProt Q6FK23); test: cell-based; format: cell-based, C. glabrata
[9] = target: pBEN (MF) efflux pump in S. cerevisiae YEM-2 (Candida albicans, UniProt P28873); test: cell-based; format: cell-based, C. albicans
[10] = system: pCgBEN (MF) efflux pump in S. cerevisiae YEM-40; format: cell-based, C. glabrata; conditions: YEM-40 pCgBEN; fluconazole fixed at FLUhalf 2.8
[11] = system: YEM 13 C. albicans BEN up; test: microbe, parasite or virus in culture; format: cell-based; conditions: YEM 13, 24 hrs, 80% inhibition; for MIC of compound in the presence of fluconazole (+): 1/8 × MIC of fluconazole
[12] = system: YEM 15 C. albicans, CDR1CDR2 up; test: microbe, parasite or virus in culture; format: cell-based; conditions: YEM 15, 24 hrs, 80% inhibition; for MIC of compound in the presence of fluconazole (+): 1/8 × MIC of fluconazole
YEM 53 C. krusei = test: FEPI MIC with/without 1/8 fluconazole MIC at 24 hrs (Table 11); format: cell-based; conditions: for MIC of compound in the absence of fluconazole (−): YEM 53, 24 hrs, 80% inhibition
[13] = system: YEM 17 C. glabrata, CgCDR up; format: cell-based; conditions: 24 hrs, 80% inhibition; for MIC of compound in the presence of fluconazole (+): 1/8 × MIC of fluconazole
YEM 51 C. glabrata wt = test: FEPI MIC with/without 1/8 fluconazole MIC at 24 hrs (Table 11); format: cell-based; conditions: for MIC of compound in the absence of fluconazole (−): YEM 51, 24 hrs, 80% inhibition
YEM 30 C. albicans wt = test: as above; format: cell-based; conditions: for MIC of compound in the absence of fluconazole (−): YEM 30, 24 hrs, 80% inhibition
[14] = system: YEM 24 C. albicans ΔCDR1, ΔCDR2; test: microbe, parasite or virus in culture; format: cell-based; conditions: YEM 24, 24 hrs, 80% inhibition; for MIC of compound in the presence of fluconazole (+): 1/8 × MIC of fluconazole
[15] = system: YEM 27 C. albicans ΔCDR1ΔCDR2 ΔBENΔFLU1; test: microbe, parasite or virus in culture; format: cell-based; conditions: YEM 27, 24 hrs, 80% inhibition; for MIC of compound in the presence of fluconazole (+): 1/8 × MIC of fluconazole
Aspergillus fumigatus = test: FEPI MICs in combination with 1/4 the azole's MIC (Table 12); format: cell-based; conditions: for FEPI MIC with itraconazole, 60% Inh / FEPI MIC with itraconazole, 80% Inh: itraconazole 0.063 μg/ml (1/4 MIC); for FEPI MIC with itraconazole, 60% Inh / FEPI MIC with ketoconazole, 60% Inh: 60% inhibition; for FEPI MIC with itraconazole, 80% Inh / FEPI MIC with ketoconazole, 80% Inh / FEPI MIC (alone): 80% inhibition; for FEPI MIC with ketoconazole, 60% Inh / FEPI MIC with ketoconazole, 80% Inh: ketoconazole 4 μg/ml (1/4 MIC); for FEPI MIC (alone): no azole, 35° C., CM Broth
Procedure: The combinations were tested against a series of Candida strain with known expression of efflux pumps or with complete deletion of all known pumps and Aspergillus fumigatus. Results are reported as minimum inhibitory concentration (MIC) of […] in the presence or absence of […]. A total of 27 distinct milbemycins were studied.

[16] = target: pFLU (MF) efflux pump in S. cerevisiae YEM-38 (Candida albicans, UniProt G1UB37); test: cell-based; format: cell-based, C. albicans
[17] = system: C. albicans clinical isolates (n = 33); test: microbe, parasite or virus in culture; format: cell-based
C. neoformans = test: microbe, parasite or virus in culture; format: cell-based, Cryptococcus neoformans

pCgCDR (ABC) efflux pump in S. cerevisiae YEM-39, sequence (Q6FK23 whole entry): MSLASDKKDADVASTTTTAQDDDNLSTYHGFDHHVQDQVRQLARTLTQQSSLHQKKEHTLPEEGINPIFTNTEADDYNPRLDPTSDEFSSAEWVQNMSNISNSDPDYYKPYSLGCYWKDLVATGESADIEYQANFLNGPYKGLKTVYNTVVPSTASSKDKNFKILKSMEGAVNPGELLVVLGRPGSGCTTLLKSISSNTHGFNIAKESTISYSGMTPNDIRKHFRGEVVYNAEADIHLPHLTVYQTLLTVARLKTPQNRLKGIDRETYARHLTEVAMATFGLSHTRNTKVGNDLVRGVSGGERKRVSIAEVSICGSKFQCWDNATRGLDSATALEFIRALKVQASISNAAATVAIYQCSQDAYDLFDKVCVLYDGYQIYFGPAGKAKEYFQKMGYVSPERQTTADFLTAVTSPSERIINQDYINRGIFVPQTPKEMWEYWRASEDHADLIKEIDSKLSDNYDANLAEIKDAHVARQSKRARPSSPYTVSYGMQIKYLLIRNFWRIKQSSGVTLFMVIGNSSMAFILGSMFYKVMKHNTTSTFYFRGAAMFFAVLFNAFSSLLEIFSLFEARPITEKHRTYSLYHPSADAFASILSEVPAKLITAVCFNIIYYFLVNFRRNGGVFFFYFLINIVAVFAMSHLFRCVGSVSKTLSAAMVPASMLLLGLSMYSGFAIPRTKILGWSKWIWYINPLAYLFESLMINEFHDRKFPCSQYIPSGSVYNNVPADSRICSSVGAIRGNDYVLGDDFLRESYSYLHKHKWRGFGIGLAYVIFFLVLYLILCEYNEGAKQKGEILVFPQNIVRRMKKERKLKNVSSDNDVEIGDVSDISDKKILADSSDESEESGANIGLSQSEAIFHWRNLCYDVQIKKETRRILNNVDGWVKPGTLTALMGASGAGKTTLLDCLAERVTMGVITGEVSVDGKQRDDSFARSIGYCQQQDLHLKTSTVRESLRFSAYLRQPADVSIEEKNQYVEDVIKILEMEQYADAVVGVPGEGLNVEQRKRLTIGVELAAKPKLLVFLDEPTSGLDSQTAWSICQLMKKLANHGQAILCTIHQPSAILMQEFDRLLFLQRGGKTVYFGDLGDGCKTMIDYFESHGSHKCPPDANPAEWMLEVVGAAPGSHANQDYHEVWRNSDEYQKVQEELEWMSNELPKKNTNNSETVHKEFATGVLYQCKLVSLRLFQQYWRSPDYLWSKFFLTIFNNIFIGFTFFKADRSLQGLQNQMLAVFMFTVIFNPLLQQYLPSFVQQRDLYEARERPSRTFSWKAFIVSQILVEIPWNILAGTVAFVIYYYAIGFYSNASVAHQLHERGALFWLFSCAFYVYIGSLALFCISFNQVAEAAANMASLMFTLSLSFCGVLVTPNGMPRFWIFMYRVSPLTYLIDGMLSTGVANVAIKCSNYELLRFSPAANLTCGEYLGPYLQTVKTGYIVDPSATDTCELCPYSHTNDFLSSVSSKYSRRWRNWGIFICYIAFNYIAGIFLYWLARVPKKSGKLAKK
pCDR2 (ABC) efflux pump in S. cerevisiae YEM-37, sequence (P78595 whole entry): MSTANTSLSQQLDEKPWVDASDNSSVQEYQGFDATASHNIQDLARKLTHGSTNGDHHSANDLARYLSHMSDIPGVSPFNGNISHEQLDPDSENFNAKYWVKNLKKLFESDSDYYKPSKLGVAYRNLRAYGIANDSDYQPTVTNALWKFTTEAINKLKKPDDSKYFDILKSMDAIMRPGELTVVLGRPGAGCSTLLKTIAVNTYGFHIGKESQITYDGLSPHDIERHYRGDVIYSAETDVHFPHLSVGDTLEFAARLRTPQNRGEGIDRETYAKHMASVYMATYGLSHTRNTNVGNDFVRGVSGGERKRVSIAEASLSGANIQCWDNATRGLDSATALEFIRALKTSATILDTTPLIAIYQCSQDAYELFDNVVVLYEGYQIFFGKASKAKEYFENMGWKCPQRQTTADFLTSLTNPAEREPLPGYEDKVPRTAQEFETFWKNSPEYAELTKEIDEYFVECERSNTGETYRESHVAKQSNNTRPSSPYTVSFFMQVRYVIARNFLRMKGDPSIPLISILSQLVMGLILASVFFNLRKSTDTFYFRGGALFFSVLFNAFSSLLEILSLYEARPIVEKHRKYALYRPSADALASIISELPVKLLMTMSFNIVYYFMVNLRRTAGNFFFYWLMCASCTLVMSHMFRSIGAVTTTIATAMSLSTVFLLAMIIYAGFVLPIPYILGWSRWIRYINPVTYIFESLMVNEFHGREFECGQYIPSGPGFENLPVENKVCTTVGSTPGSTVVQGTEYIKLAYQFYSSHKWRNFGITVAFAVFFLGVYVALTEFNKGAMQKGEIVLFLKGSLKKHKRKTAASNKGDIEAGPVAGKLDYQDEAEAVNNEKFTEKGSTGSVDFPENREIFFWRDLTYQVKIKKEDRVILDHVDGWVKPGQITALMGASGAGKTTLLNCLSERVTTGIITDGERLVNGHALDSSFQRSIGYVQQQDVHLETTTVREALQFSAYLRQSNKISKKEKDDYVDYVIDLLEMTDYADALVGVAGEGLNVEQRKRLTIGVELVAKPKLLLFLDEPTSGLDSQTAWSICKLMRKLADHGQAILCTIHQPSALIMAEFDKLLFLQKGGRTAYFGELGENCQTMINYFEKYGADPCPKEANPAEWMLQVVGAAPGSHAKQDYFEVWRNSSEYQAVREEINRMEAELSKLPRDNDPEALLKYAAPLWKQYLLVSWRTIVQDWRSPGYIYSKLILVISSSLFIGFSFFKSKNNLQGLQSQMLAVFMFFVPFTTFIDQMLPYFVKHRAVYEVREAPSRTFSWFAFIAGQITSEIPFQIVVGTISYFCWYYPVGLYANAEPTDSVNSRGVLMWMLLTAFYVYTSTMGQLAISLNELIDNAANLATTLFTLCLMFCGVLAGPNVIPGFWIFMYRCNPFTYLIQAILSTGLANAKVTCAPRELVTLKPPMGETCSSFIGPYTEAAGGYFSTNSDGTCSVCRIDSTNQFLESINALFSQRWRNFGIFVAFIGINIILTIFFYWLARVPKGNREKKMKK
pCDRI (ABC) efflux pump in S. cerevisiae YEM-1, sequence (P43071 whole entry): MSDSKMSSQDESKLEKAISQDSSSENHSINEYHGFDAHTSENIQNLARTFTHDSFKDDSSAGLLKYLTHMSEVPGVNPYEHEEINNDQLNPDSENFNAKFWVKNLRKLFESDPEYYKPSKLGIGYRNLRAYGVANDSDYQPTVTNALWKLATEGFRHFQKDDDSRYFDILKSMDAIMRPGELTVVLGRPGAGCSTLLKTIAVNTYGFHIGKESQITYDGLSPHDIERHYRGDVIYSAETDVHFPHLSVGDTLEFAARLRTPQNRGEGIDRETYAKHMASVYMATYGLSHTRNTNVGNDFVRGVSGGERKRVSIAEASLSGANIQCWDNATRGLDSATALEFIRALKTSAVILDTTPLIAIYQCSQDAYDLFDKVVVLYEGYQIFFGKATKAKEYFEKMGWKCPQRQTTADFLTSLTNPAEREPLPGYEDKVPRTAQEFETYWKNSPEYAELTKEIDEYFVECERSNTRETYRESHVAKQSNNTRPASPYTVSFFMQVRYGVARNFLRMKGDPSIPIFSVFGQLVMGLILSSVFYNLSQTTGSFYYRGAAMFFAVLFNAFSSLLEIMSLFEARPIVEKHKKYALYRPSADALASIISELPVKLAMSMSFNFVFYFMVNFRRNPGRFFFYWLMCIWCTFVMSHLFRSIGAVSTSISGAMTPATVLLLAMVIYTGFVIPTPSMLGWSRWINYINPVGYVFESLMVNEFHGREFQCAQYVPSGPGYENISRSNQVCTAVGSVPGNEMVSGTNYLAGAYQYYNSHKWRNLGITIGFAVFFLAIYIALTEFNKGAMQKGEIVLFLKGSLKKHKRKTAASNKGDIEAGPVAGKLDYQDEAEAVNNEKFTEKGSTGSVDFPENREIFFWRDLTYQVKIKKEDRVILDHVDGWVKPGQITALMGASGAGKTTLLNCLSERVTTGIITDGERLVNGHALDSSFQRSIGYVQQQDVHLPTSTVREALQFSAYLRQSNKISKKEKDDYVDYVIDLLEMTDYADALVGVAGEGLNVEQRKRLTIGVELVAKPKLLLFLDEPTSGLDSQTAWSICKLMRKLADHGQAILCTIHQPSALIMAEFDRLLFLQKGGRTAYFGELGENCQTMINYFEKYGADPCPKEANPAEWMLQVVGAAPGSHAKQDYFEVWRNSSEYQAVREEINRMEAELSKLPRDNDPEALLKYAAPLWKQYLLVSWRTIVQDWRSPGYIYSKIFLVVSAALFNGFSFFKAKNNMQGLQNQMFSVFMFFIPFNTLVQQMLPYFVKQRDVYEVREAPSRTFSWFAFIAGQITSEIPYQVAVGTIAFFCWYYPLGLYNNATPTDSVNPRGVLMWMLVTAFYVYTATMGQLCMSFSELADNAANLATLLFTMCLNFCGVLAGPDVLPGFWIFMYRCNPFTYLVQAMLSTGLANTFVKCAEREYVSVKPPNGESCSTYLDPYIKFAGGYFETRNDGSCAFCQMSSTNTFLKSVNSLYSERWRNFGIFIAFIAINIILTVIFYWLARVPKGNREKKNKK
pBEN (MF) efflux pump in S. cerevisiae YEM-2, sequence (P28873 whole entry): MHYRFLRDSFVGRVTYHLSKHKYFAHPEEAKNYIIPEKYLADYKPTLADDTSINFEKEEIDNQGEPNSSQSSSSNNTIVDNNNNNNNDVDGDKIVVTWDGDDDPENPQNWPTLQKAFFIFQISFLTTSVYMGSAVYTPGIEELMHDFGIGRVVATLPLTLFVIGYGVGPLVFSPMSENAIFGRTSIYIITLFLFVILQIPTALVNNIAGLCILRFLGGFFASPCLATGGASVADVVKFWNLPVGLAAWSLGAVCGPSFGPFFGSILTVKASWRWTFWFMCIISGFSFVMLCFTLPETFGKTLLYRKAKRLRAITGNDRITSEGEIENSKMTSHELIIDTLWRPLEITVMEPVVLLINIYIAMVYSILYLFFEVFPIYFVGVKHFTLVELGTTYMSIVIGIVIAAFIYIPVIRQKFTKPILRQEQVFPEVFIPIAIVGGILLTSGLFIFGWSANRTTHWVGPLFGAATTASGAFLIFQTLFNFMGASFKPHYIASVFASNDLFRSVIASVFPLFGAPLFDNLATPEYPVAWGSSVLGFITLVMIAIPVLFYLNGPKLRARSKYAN

## CO[C@H]1C[C@@]2(O)/C(CO)=C/C=C/[C@H](C)C/C(C)=C/C[C@@H]3C[C@@H](C[C@]4(CC[C@H](C)[C@@H](C)O4)O3)OC(=O)[C@@H]2C=C1C [Compound 6, Milbemycin β1]
[1]; Candida albicans, read-out: MIC Mb alone
  MIC: 16 µg/mL (≈ 29.4 µM)
[1]; YEM-10, milbemycin β1 2.5 μg/ml
  MIC of fluconazole, Flu + Mb (2.5 μg/ml): 0.125 µg/mL
[2]; Nakaseomyces glabratus, read-out: MIC of milbemycin β1 (MB) alone
  MIC: > 64 µg/mL
[2]; YEM-17
  Fluconazole MIC with 2.5 μg/ml milbemycin β1: 4 µg/mL
  Fluconazole MIC with 5 μg/ml milbemycin β1: 2 µg/mL
  Fluconazole MIC with 10 μg/ml milbemycin β1: 2 µg/mL
  Fluconazole MIC with […] milbemycin β1: 8 µg/mL
[3]; inhibitor 0.06 μg/ml
  Adriamycin TC50, P388: 0.009 µg/mL
[3]; inhibitor 0.25 μg/ml
  Adriamycin TC50, P388: 0.009 µg/mL
[3]; inhibitor 0.5 μg/ml
  Adriamycin TC50, P388: 0.011 µg/mL
[3]; inhibitor 1 μg/ml
  Adriamycin TC50, P388: 0.009 µg/mL
[3]; inhibitor 2 μg/ml
  Adriamycin TC50, P388: 0.012 µg/mL
[3]; inhibitor 3.125 μg/ml
  Adriamycin TC50, P388: 0.011 µg/mL
[3]; inhibitor […]
  Adriamycin TC50, P388: 0.008 µg/mL
[4]; inhibitor 0.06 μg/ml
  Adriamycin TC50, P388/ADM: 1.955 µg/mL
[4]; inhibitor 0.25 μg/ml
  Adriamycin TC50, P388/ADM: 0.66 µg/mL
[4]; inhibitor 0.5 μg/ml
  Adriamycin TC50, P388/ADM: 0.369 µg/mL
[4]; inhibitor 1 μg/ml
  Adriamycin TC50, P388/ADM: 0.215 µg/mL
[4]; inhibitor 2 μg/ml
  Adriamycin TC50, P388/ADM: 0.05 µg/mL
[4]; inhibitor 3.125 μg/ml
  Adriamycin TC50, P388/ADM: 0.051 µg/mL
[4]; inhibitor […]
  Adriamycin TC50, P388/ADM: 0.848 µg/mL
[5]
  Minimal concentration required to reduce the MIC of fluconazole by sixteen-fold: <0.07 µg/mL
[6]; read-out: FEPIhalf (concentration needed to reduce activity of efflux pump by 50%), YEM-1 pCDRI, fluconazole fixed at FLUhalf 5.6
  IC50: 0.918 µM
[7]; read-out: FEPIhalf (concentration needed to reduce activity of efflux pump by 50%), YEM-37 pCDR2, fluconazole fixed at FLUhalf 1
  IC50: 3.67 µM
[8]; read-out: FEPIhalf (concentration needed to reduce activity of efflux pump by 50%), YEM-39 pCgCDR, fluconazole fixed at FLUhalf 4
  IC50: 3.67 µM
[9]; read-out: FEPIhalf (concentration needed to reduce activity of efflux pump by 50%), YEM-2 pBEN, fluconazole fixed at FLUhalf 5.6
  IC50: 29.4 µM
[10]
  FEPIhalf (concentration needed to reduce activity of efflux pump by 50%): 16
[11]
  MIC of compound in the presence of fluconazole (+): > 64 µg/mL
  MIC of compound in the absence of fluconazole (−): > 64 µg/mL
[12]
  MIC of compound in the presence of fluconazole (+): ≦0.03
  MIC of compound in the absence of fluconazole (−): > 64 µg/mL
YEM 53 C. krusei
  MIC of compound in the presence of fluconazole (+): 8 µg/mL
  MIC of compound in the absence of fluconazole (−): > 64 µg/mL
[13]
  MIC of compound in the presence of fluconazole (+): 1 µg/mL
  MIC of compound in the absence of fluconazole (−): > 64 µg/mL
YEM 51 C. glabrata wt
  MIC of compound in the presence of fluconazole (+): 8 µg/mL
  MIC of compound in the absence of fluconazole (−): > 64 µg/mL
YEM 30 C. albicans wt
  MIC of compound in the presence of fluconazole (+): ≦0.03
  MIC of compound in the absence of fluconazole (−): > 64 µg/mL
[14]
  MIC of compound in the presence of fluconazole (+): > 64 µg/mL
  MIC of compound in the absence of fluconazole (−): > 64 µg/mL
[15]
  MIC of compound in the presence of fluconazole (+): 64 µg/mL
  MIC of compound in the absence of fluconazole (−): > 64 µg/mL
Aspergillus fumigatus
  FEPI MIC with fluconazole, 60% Inh: 2
  FEPI MIC with fluconazole, 80% Inh: >64
  FEPI MIC with itraconazole, 60% Inh: >64
  FEPI MIC with itraconazole, 80% Inh: >64
  FEPI MIC with ketoconazole, 60% Inh: ≦0.063
  FEPI MIC with ketoconazole, 80% Inh: 4
  FEPI MIC (alone): >64

## C/C1=C\C[C@@H]2C[C@@H](C[C@]3(CC[C@H](C)[C@@H](C)O3)O2)OC(=O)[C@@H]2C=C(COC(=O)c3ccc[nH]3)[C@@H](O)[C@H]3OC/C(=C\C=C\[C@H](C)C1)[C@]32O [Compound 11, Milbemycin α9]
[6]
  IC50: < 0.0941 µM
[7]
  IC50: 3.14 µM
[8]
  IC50: 6.27 µM
[9]
  IC50: > 100 µM
[16]
  IC50: > 100 µM
[10]
  FEPIhalf (concentration needed to reduce activity of efflux pump by 50%): >64
[11]
  MIC of compound in the presence of fluconazole (+): > 64 µg/mL
  MIC of compound in the absence of fluconazole (−): > 64 µg/mL
[12]
  MIC of compound in the presence of fluconazole (+): ≦0.03
  MIC of compound in the absence of fluconazole (−): > 64 µg/mL
YEM 53 C. krusei
  MIC of compound in the presence of fluconazole (+): ≦0.03
  MIC of compound in the absence of fluconazole (−): > 64 µg/mL
[13]
  MIC of compound in the presence of fluconazole (+): 0.5 µg/mL
  MIC of compound in the absence of fluconazole (−): > 64 µg/mL
YEM 51 C. glabrata wt
  MIC of compound in the presence of fluconazole (+): 1 µg/mL
  MIC of compound in the absence of fluconazole (−): > 64 µg/mL
YEM 30 C. albicans wt
  MIC of compound in the presence of fluconazole (+): ≦0.03
  MIC of compound in the absence of fluconazole (−): > 64 µg/mL
[14]
  MIC of compound in the presence of fluconazole (+): > 64 µg/mL
  MIC of compound in the absence of fluconazole (−): > 64 µg/mL
[15]
  MIC of compound in the presence of fluconazole (+): > 64 µg/mL
  MIC of compound in the absence of fluconazole (−): > 64 µg/mL
Aspergillus fumigatus
  FEPI MIC with fluconazole, 60% Inh: ≦0.063
  FEPI MIC with fluconazole, 80% Inh: 0.5
  FEPI MIC with itraconazole, 60% Inh: 1
  FEPI MIC with itraconazole, 80% Inh: 4
  FEPI MIC with ketoconazole, 60% Inh: 0.125
  FEPI MIC with ketoconazole, 80% Inh: 0.125
  FEPI MIC (alone): >64
[17]
  Fluconazole MIC50, + milbemycin α9: <0.25 µg/mL
  Fluconazole MIC90, + milbemycin α9: <0.25 µg/mL
  Fluconazole MIC Range, + milbemycin α9: <0.25 to 1 µg/mL
[17]; C. albicans (n=33)
  Reduction of fluconazole MIC90 by milbemycin α9: > 512 fold
C. neoformans
  Fluconazole MIC, + milbemycin α9: ≦0.25 μg/ml
